The values below come from patent publication US11285180B2, “Methods of enhancing the potency of incretin-based drugs in subjects in need thereof” (INSERM (INSTITUT NATIONAL DE LA SANTE ET DE LA RECHERCHE …, priority 2016, dated 2022).

The subject of experiment [1] is GLP-1-induced insulin secretion. Nature of the experiment: In vivo GLP-1 stimulated insulin secretion (i.p. GLP-1, then i.v. glucose challenge). More on the design: species or system mice. The procedure:
(§1) To evaluate GLP-1 sensitivity three GLP-1 regulated parameters were quantified: insulin secretion, gastric emptying, and food intake. To prevent from the degradation of exogenous GLP-1 a DPP4 inhibitor (400 μg/mouse sitagliptin) was given orally 30 min before the GLP-1 challenge.
Since GLP-1 insulinotropic effect is glucose dependent we first assessed in vivo GLP-1 stimulated insulin secretion in hyperglycemic conditions. The mice were first fasted for 6 h before the GLP-1 and glucose challenges. Active GLP-17-36 (BACHEM, Switzerland) was then administered intraperitoneally at different doses (0, 2.2, 7, 20, 63 nmol/kg, diluted in distilled water) 5 min before the glucose challenge. In some sets of experiments a single active dose of 7 nmol/kg was tested. To induce hyperglycemic conditions a retrorbital i.v. glucose (1 g/kg) injection was realised. This procedure avoids the confounding effect of the oral glucose-induced gut-secreted GLP-1. Blood (30 μl) was collected from the tail vein 15 min after glucose challenge. Plasma insulin concentration was determined.
The dose-response curve was calculated by curve interpolation with 4-Parameter Logistic (4PL) sigmoidal model using GraphPad Prism version 6.00 for Mac (GraphPad Software, San Diego, Calif., USA; www.graphpad.com) and the ECso calculated.
(§2) Thirty minutes before all 3 GLP-1 challenge procedures, a NO synthase (NOS) inhibitor (L-NAME, Abcam) was administered i.p. at doses of 0, 50, 100, 200 μg/kg. In a different set of mice, a NO donor (L-Arginine, 1 g/kg, Sigma-Aldrich) was administered orally in the presence or absence of the GLP-1r antagonist, Exendin 9 (1 nmol/mice, 100 μL, i.p. injection, Bachem). To study the chronic effect of L-arginine in GLP-1 sensitivity, the molecule (0.5 g/kg, 300 μL, lgavage/day) was administered for one week.

In experiment [2] the test system is gastric emptying. The experiment is described as follows: GLP-1 regulated gastric emptying (oral acetaminophen, plasma acetaminophen). It is filed as in vivo, mice. The procedure: as §1
For gastric emptying the glucose challenge was replaced by an oral administration of acetaminophen (SIGMA-Aldrich, […]). The plasma acetaminophen concentrations were assessed by colorimetric-based assay (SEKISUI diagnostics, Canada) in the plasma from tail blood during 15 min.
as §2

Experiment [3] has as its system food intake. Nature of the experiment: GLP-1 regulated food intake (30 min after 16-hour fast). Format: in vivo, mice. The procedure:
as §1
Food intake was recorded for 30 min following a 16-hour period of fast.
as §2

For experiment [4], the system named is cFos positive cells in the brain stem (NTS-DMNX). Nature of the experiment: c-FOS immunostaining in the brain stem after GLP-1. Format: in vivo, mice. The procedure:
Brain was removed and kept on PFA 4% overnight at 4° C. After washing in cold citrate buffer for 6 h, brain was warmed until boiling, washed in PBS, cooled to 4° C., then immersed in cold sucrose solutions (10% then 30% in PBS). After freezing on dry ice, the brain was stored at −80° C. and cut into 20 μm thick slices (cryostat, Thermo). The slices were washed 3 times with PBS, blocked with PBS, 0.3% Triton X100, 2% donkey serum and incubated with the c-fos antibody diluted in the same solution ( 1/10000, Santa Cruz) overnight at RT. After 16 h, the brain slices were washed 3 times with PBS and incubated with biotinylated antibody ( 1/2000, Jackson ImmunoResearch) diluted in the PBST solution (PBS, 0.3% Triton X100) for 1 h at RT. Brain slices were washed 3 times in PBS and incubated with the reagent A (avidin) and B (biotinylated enzyme) from Vectastain Elite ABC kit (Vector Laboratories) diluted in the PBST solution, 30 min at RT. Then, brain slices were washed 3 times in PBS and incubated with biotinylated tyramine solution (tyramine and biotin diluted in borate buffer/3% H2O2, pH=8.4), 20 min at RT. […] The fluorescence was analysed as above. We identified the Nucleus Tractus Solitary NTS and dorsal motor nucleus of vagus nerve DMNX area using a mouse brain atlas (Franklin and Paxinos, 1997) and we counted the number of cFOS positive cells/area corresponding to the NTS-DMNX.

The test system of experiment [5] is primary enteric neurons. The experiment is described as follows: GLP-1-induced NO production in primary cultures of enteric neurons (DAF-FM). Format: cell-based, mice. How it is done: The protocol was adapted from Smith and colleagues (Smith et al., 2013). The ileum (last 9 cm) was harvested and kept in ice cold-carbogen bubbled-Krebs solution. The tissue was cut into 3 cm slices and kept on plastic rod. An incision was realized with a forceps where the mesentery was attached. The outer layers containing muscular cells and myenteric neurons (LMMP) were obtained by moving from top to bottom, along the gap. The LMMP were digested with collagenase II (1.3 mg/mL, Worthington) and BSA (0.3 mg/mL) in Krebs solution bubbled with carbogen 30 min in a 37° C. shaking bath. Digested cells were transferred in Hank Balanced salt Solution (HBSS)/trypsin solution (0.05%) 7 min in a 37° C. shaking bath. […]
Primary enteric neurons were grown for 7 days in culture. […] The fluorescence was measured on confocal Zeiss Laser Scanning Microscope LSM-780 equipped with 63×/1.4 NA oil immersion objective and a GaAsP detector with quantum yield of 45% with Black Zen software and analysed with Image J software. A region of interest (ROI) corresponding to identified nNOS positive cells was defined from where the DAF-FM or nNOS fluorescence mean per ROI was measured. The ratio of both values for each ROI was then calculated.

Experiment [6] concerns distal ileum segment. Nature of the experiment: Ex vivo ileal real-time NO measurement. More on the design: species or system mice. The procedure: The distal ileum segment from fed mice were washed in Krebs-Ringer bicarbonate/glucose buffer (pH 7.4) in an atmosphere containing 95% O2—5% CO2 and then immersed in Eppendorf tubes containing 400 μL of the same medium. After a 10 min recovery period, the spontaneous NO release in response to 10 μL of Krebs-Ringer solution (control), GLP-1 (150 nM) and/or Exendin 9 (375 nM) was measured at 37° C. for 10 min using a NO-specific amperometric probe (ISO-NOPF, […], 5 mm length, World Precision Instruments, Aston Stevenage, UK) implanted directly in the ileum. Data are expressed (Fournel et al., 2015).

In experiment [7] the test system is insulin secretion. The experiment is described as follows: Oral glucose-induced insulin secretion after oral NO donor. Format: in vivo, mice. The procedure: To identify oral glucose-induced insulin and GLP-1 secretions, all sets of mice were gavaged with glucose (2 g/kg). After 15 min, 30 μl of blood from the tip of the tail vein were sampled to assess plasma insulin concentration. 300 μl of portal vein blood were collected following an intravenous (i.v.) administration of a Ketamin (10 mg/kg)/Xylasin (1 mg/kg), to ensure an immediate anesthesia of the mice. This procedure allows performing portal vein blood sampling since it dramatically minimizes the impact of anesthesia on blood parameters. In addition, to prevent from the in vivo degradation of GLP-1 by DPP4, a DPP4 inhibitor (400 μg/mouse sitagliptin, MSD Rahway, N.J.) was administered orally 30 min before the oral gavage with glucose. Eventually, the portal blood was collected in the presence of protease inhibitors diprotin A (1 mM), aprotinin (0.2 μM) and EDTA (1 mM). Plasma hormones were assessed by ELISA (insulin, Mercodia; active GLP-17-36, Alpco). A GLP-1 resistance index for each mice was calculated from glucose, insulin and GLP-1 concentrations 15 min after the oral glucose load. Since the insulinotropic activity of GLP-1 depends upon the glycemic level we set the following equation: Glucose x GLP-1 concentrations/insulin concentration. In some experiments, distal ileum and left nodose ganglion were harvested from mice.
as §2

Experiment [8] has as its system meal-induced insulin secretion. Particulars: administered orally; healthy, type II diabetic patients, and diabetic mice; cited from earlier work.
Setting [9] is: L-NAME i.p. 30 min before GLP-1 challenge.

Take `COC(=O)[C@@H](N)CCCNC(=N)N[N+](=O)[O-]` [L-NAME]: in experiment [1] (NCD mice, L-NAME i.p. 30 min before GLP-1 challenge), the “effect on GLP-1-induced insulin secretion” value was “partially reduced”. In experiment [2] (setting [9]), the “effect on GLP-1-induced gastric emptying inhibition” value is on record as “altered”. In addition, the “effect on GLP-1-induced food intake inhibition” value in experiment [3] (setting [9]) was “but not GLP-1-induced food intake inhibition”.
Turning to “GLP-1: Active GLP-1 7-36 (BACHEM), insulinotropic hormone, GLP-1 receptor agonist”, the “number of cFos positive neurons in response to GLP-1” value in experiment [4] (NCD mice, GLP-1 7 nmol/kg) is listed as “increases”. The “number of cFos positive cells in the brain stem after GLP-1 administration” value in experiment [4] (germ free mice) was “could not be increased”. Also, in experiment [5] (enteric neurons from HFD-fed mice versus NCD), the “GLP-1-induced NO production” value is listed as “dramatically resistant”. The “NO production by enteric neurons stimulated by GLP-1” value in experiment [5] (enteric neurons from germ free mice) is listed as “could not be stimulated”. The results for the “GLP-1-induced NO production ex vivo from ileum segments” value in experiment [6] (HFD-fed GLP-1 resistant mice) and in experiment [6] (NCD versus HC-HFD-fed GLP-1 sensitive mice) were “totally blunted” and “similar”, respectively. For the same compound, the “EC50 of GLP-1-induced insulin secretion (fold change dose-response)” value is “doubled” in experiment [1] (HC-HFD mice compared to NCD mice) and “dramatically increased” in experiment [1] (HFD-fed lean diabetic mice compared to NCD mice). Further, the “dose of GLP-1 reaching the maximal insulin secretion” value in experiment [1] (NCD and HC-HFD-fed mice, GLP-1 i.p., plasma insulin 15 min after i.v. glucose) stood at 7 nmol/kg. Also, the GLP-1-induced insulin secretion entry in experiment [1] (NCD-fed subdiaphragmatic vagotomy (SDVx) mice, GLP-1 7 nmol/kg) is recorded as “reduced”; in experiment [1] (NOD2, CD14 and TLR4 KO mice compared to wild type controls), “dramatically reduced”; in experiment [1] (germ free mice), “prevented”. The gastric emptying entry in experiment [2] (NOD2, CD14 and TLR4 KO mice) is given as “impaired”. In addition, the “GLP-1 effect on gastric emptying” value in experiment [2] (SDVx-operated NCD-fed mice) is “induces GLP-1 resistance to gastric emptying”. Further, in experiment [2] (both fat-enriched diet-fed mice (HC-HFD, HFD)), the “plasma concentrations of acetaminophen after GLP-1 administration (gastric emptying)” value was “remained elevated”. In experiment [3] (HFD-fed lean diabetic mice compared to NCD-fed mice), the “energy intake with increasing doses of GLP-1” value is recorded as “only modestly reduced”. The food intake result in experiment [3] (NOD2, CD14 and TLR4 KO mice) is given as “remained unchanged”. In addition, the “energy intake after GLP-1 administration” value in experiment [3] (sham versus SDVx-operated mice) is recorded as “similar”.
Consider Exendin 9, for which, in experiment [7] (NCD-fed mice, co-treatment with L-Arginine), the “effect of co-treatment on L-Arginine-increased insulin secretion” value is reported as “prevented the effect of GLP-1”. In experiment [6] (ileum segments, Exendin 9 with GLP-1), the “effect on GLP-1 induced NO production” value was “prevented GLP-1 induced NO production”.
On to `N=C(N)NCCC[C@H](N)C(=O)O` [L-Arginine], for which, in experiment [8], the meal-induced insulin secretion entry is listed as “improves”. Besides, the insulin secretion result in experiment [7] (HFD GLP-1 resistant diabetic mice, oral and acute administration) was “improved insulin secretion”. The “insulin secretion after oral glucose challenge” value in experiment [7] (NCD-fed mice, oral and acute treatment) was “induced insulin secretion”. Also, the “GLP-1-induced insulin secretion (GLP-1 sensitivity)” value in experiment [1] (HFD diabetic mice, chronic NO-donor treatment (1 week)) is “enhanced”. The gastric emptying result in experiment [2] (HFD diabetic mice, NO-donor treatment) is reported as “could also improve”. Further, the gastric emptying inhibition result in experiment [2] (oral NO donor, through the GLP-1r) is recorded as “can induce gastric emptying inhibition”.
